Reference: US20220409510A1, “Polypeptides And Methods For Improving Skin Conditions” (Interk Peptide Therapeutics Limited, priority 2018, published 2022)

System: MMP1
Experiment: MMP1 expression in human skin explants after UV-irradiation (immunohistochemistry)
Type: cell-based
Description: The effect of the polypeptide IK34720 (SEQ ID NO: 3) on MMP-1 activity in human skin was evaluated using the following protocol.
FIGS. 17 and 18 illustrate the effect of the polypeptide IK34720 (SEQ ID NO: 3) on MMP1 expression, in accordance with the following protocol.
Human skin (2× human explant tissues) removed at elective surgery was cleaned, dissected and cut into pieces of approx. 5mm×5mm. Each piece was placed in a well of a 96 well plate, with individual plates prepared to assess the effects 3 hrs post treatment. Skin was subjected to UV-radiation from solar-simulated UV source for 1.5 h (UVR), or non-irradiation (SHAM), and treated immediately after with a vehicle control, Calcitriol (1 nM) or the polypeptide IK34720 (SEQ ID NO: 3) at concentrations of 50 μM, 250 μM or 500 uM. In FIG. 17, IK50, IK250 and IK500 as μM concentrations refers to 15 μg, 75 μg and 150 μg of IK34720 per 120 μL culture medium/explant, respectively.
Samples harvested at 3 hrs were fixed, sectioned, immunohistochemically stained for MMP1 and quantified for MMP1 expression, by expressing epidermal area stained for MMP1 as a function of total epidermal area examined.

RSKAKNPLYRRRRRRRRR [IK34720, 18-residue polypeptide: … with a C-terminal polyarginine region of 8 arginines]
percentage of MMP1 positive cells (500 μM, 3 hrs, FIG. 18): statistically significantly reduced | cells staining for MMP-1 (3 hrs post irradiation/treatment, Calcitriol 1 nM, IK34720 50, 250 or 500 uM, FIG. 17): fewer stained cells
